In US20130150354A1, “NEW SELECTIVE CCR2 ANTAGONISTS” (BOEHRINGER INGELHEIM INTERNATIONAL GMBH, priority 2011, published 2013) one finds Ki data, which are given here for twelve compounds.

SMILES strings stand for the structures.

The target in one test is T1, human CCR5 (Homo sapiens, UniProt P51681).
T1 construct: expressed in transfected cells; host or cells: CHO cells co-expressing Gα16, grown under puromycin and zeocin selection; membrane preparation
T1 sequence (P51681 whole entry): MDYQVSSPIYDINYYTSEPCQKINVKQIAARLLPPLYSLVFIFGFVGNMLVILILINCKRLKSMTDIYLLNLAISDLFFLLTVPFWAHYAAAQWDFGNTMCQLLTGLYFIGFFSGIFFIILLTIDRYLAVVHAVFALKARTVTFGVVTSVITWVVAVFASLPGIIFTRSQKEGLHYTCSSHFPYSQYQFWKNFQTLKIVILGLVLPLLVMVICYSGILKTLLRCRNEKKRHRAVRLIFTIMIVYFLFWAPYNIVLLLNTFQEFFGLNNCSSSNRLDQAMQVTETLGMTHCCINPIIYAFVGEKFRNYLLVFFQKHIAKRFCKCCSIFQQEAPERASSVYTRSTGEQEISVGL
As to the kind of experiment: CCR5 receptor membrane binding assay (CHO (Gα16) human CCR5 membranes, [125I]RANTES, SPA beads). The following applies: 6 h, read-out: hKi [nM] (CCR5). The protocol:
The above exemplary substances have been tested for binding to CCR5 using a binding assay as outlined herein below:
CHO, (Gα16) human CCR5 cells were cultured under standardized conditions at 37° C. and 5% CO2 in a humidified incubator. CHO (Gα16) human CCR5 cells were cultivated in Ham's F12 (Invitrogen; #31765068) supplemented with 10 µg/ml Puromycin (Invitrogen; #A11139-03), 200 µg/ml Zeocin (Invitrogen; #45-0003) and 10% FCS (Gibco; #10500-064).
Membranes were prepared from CHO (Gα16) human CCR5 cells. Cells were cultured on […] plates (Nunc; #166508) 2-3 days before membrane preparation (usually 80-100 plates to obtain 80 mg protein).
Cells were scraped off the plates with a big scraper and washed with 2×5 ml ice cold Phosphate Buffer Saline (PBS; Invitrogen; #14040-174). Cell suspension was collected in a glass bottle (on ice). Cell suspension was harvested at 1400 rpm and 4° C. for 10 min and washed in PBS. Cell pellet was resuspended in 40 ml PBS with protease inhibitor mix ‘complete’ (Roche; #11873580001; 1 tablet/50 ml).
For gentle cell disruption the membrane preparation was performed by using a homogenizer (potter). Cells were homogenized for 5-10 min.
Membranes were centrifuged at 1000 rpm and 4° C. for 5 min. Supernatant (=membrane) was harvested in a new falcon tube and remaining cell pellet homogenized again for 5-10 min with PBS with protease inhibitor mix and centrifuged. Collected supernatant was centrifuged at 40000 rpm and 4° C. for 30 min to sediment the cell membranes.
The membranes were resuspended in 25 mM HEPES, 25 mM MgCl2, 1 mM CaCl2, 10% Glycerine for storage in aliquots at −80° C. Membranes were diluted to a concentration of 5 mg/ml (Bradford Assay).
[^125I]RANTES, Stock: 1825 Ci/mmol, 25 μCi (Bio Trend #A3-AI-676) was solved in 1000 μl assay buffer (100 mM NaCl; 10 mM MgCl2; 50 mM Tris-HCl; 1 mM EDTA; 0.1% BSA, pH 7.6), stored at −20° C.
CHO (Gα16) human CCR5 membrane were solved on ice and adjusted with assay buffer to a concentration of 2.5 μg/15 μl.
Amersham Biosciences PVT-WGA Beads (GE Healthcare; #RPNQ0001) were adjusted with assay buffer to a concentration of 8 mg/ml. For preparation of the membrane-bead-suspension, membranes and beads were incubated for 30 min at RT under rotation with a ratio of 1:2.
Test compounds dissolved in 100% DMSO to a concentration of 10 mM and are further diluted with 100% DMSO to 1 mM. All additional compound dilutions were obtained with assay buffer, final 1% DMSO. 7 μl compound dilution, 45 μl membrane-bead-suspension and 10 μl [^125I]RANTES (ca. 20000 cpm/10 μl) were incubated at RT. Bound radioactivity was determined by scintillation counter after 6 h. Determination of affinity of test compounds (dissociation constant Ki) is calculated by iterative fitting of experimental data using the “easy sys” program, which is based on law of mass action (Schittkowski K. (1994), Numerische Mathematik, Vol. 68, 129-142).
Regarding `Cc1c(Nc2cccc(C(F)(F)F)c2)ncnc1C(=O)N1CCC(N2CCO[C@H]3COCC[C@H]32)CC1` [Example 5], the Ki amounted to 1460 nM.

For `Cc1c(NC[C@H]2CCC[C@@H](c3ccc(C(F)(F)F)cc3)O2)ncnc1C(=O)N1CCC(N2CCO[C@H]3COCC[C@H]32)CC1` [Example 2], the Ki stood at 460 nM.

As to `Cc1c(NC[C@H]2CCC[C@@H](c3ccc(C(F)(F)F)cc3)O2)ncnc1C(=O)N1CCC(N2C[C@H]3C[C@@H](N(C)S(C)(=O)=O)C[C@H]3C2)CC1` [Example 9], the Ki is 21 nM.

Regarding `Cc1c(C(=O)N2CCC(N3CC4COCC4C3)CC2)ncnc1N1CCc2ccc(C(F)(F)F)cc2C1` (stereo not drawn) [Example 32], the Ki stood at 5310 nM.

Turning to `Cc1c(Nc2ccc(Cl)c(Cl)c2)ncnc1C(=O)N1CCC(N2CCO[C@H]3COCC[C@H]32)CC1` [Example 24], the Ki stood at 670 nM.

Regarding `Cc1nc(Nc2cccc(C(F)(F)F)c2)c(C)c(C(=O)N2CCC(N3CCO[C@H]4COCC[C@H]43)CC2)n1` (single isomer, unassigned) [Example 40b], the Ki turned out to be 640 nM.

On to `Cc1c(Nc2ccc(Cl)c(Cl)c2)nc(C2CC2)nc1C(=O)N1CCC(N2CCO[C@H]3COCC[C@H]32)CC1` (single isomer, unassigned) [Example 35a], for which the Ki turned out to be 160 nM.

For the compound `Cc1c(Nc2ccc(Cl)c(Cl)c2)ncnc1C(=O)N1CCC(N2CC3COCC3C2)CC1` (stereo not drawn) [Example 18], the Ki is 930 nM.

As for `Cc1nc(Nc2cccc(C(F)(F)F)c2)c(C)c(C(=O)N2CCC(N3CCO[C@H]4COCC[C@H]43)CC2)n1` [Example 30], the Ki was found to be 1000 nM.

For the compound `Cc1c(Nc2cccc(C(F)(F)F)c2)nc(C2CC2)nc1C(=O)N1CCC(N2CCO[C@H]3COCC[C@H]32)CC1` (single isomer, unassigned) [Example 39a], the Ki was 460 nM.

For the compound `Cc1c(NC[C@H]2CCC[C@@H](c3ccccc3)C2)ncnc1C(=O)N1CCC(N2CC3COCC3C2)CC1` (stereo partly drawn) [Example 44], the Ki was 65 nM.

Regarding `Cc1c(NCc2ccc(C(C)(C)C)cc2)nc(C(F)(F)F)nc1C(=O)N1CCC(N2CC3COCC3C2)CC1` (stereo not drawn) [Example 20], the Ki was found to be 2610 nM.

The target in another test is T2, CCR2 (Homo sapiens, UniProt P41597).
T2 construct: Membranes were prepared from THP-1 cells; endogenous in cells; host or cells: THP-1 (human acute monocytic leukaemia cells), membrane preparation
T2 sequence (P41597 1-360 isoform P41597-2): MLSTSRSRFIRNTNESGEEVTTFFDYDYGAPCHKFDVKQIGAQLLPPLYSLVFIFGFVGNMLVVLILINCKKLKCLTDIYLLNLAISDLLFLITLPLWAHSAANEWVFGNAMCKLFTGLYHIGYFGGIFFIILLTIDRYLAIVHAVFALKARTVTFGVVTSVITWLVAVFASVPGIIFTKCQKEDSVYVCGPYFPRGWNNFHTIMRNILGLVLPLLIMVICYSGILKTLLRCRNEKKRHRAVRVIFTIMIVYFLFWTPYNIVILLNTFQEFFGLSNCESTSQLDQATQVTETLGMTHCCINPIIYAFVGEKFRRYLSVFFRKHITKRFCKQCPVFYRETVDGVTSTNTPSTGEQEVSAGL
As to the kind of experiment: CCR2 receptor membrane binding assay (THP-1 membranes, 125I-MCP-1, SPA beads). The following applies: THP-1 cell membranes, 125I-MCP-1, 8 h; read-out: hKi [nM] (CCR2). The protocol: The above exemplary substances have been tested for binding to CCR2 using a binding assay as outlined herein below:
THP-1 cells (human acute monocytic leukaemia cells) were cultured under standardized conditions at 37° C. and 5% CO2 in a humidified incubator. THP-1 cells were cultivated in RPMI 1640 medium (Gibco 21875) containing 1% MEM-NEAA (Gibso 11140) 2 mM L-glutamine, 1.5 g/L sodium bicarbonate, 4.5 g/L glucose, 10 mM HEPES and 1.0 mM sodium pyruvate, 90%; 10% fetal calf serum (FCS Gibco 10500-064).
Membranes were prepared from THP-1 cells. THP-1 cells were centrifuged at 300×g at 4° C. for 10 min. The cell pellet was resuspendet in Phosphate Buffer Saline (PBS, including 10 μM Pefabloc and a protease inhibitor mix ‘complete’, Boehringer Mannheim (1 tablet/50 ml)), to a concentration of […]. The membrane preparation was performed by disrupting the cells by nitrogen […] (at 50 bar, for 1 h) in a “Nitrogen Bombe” (Parr Instrument). Cell debris was removed by centrifugation (800×g at 4° C., 1 min). The supernatant was centrifuged at 80000×g, 4° C. for 30 min to sediment the cell membranes. Usually 50 mg of protein (Bradford assay) were yielded from 1×10E9 cells. The membranes were resuspendet in 25 mM HEPES, 25 mM MgCl2, 1 mM CaCl2, 10% Glycerine for storage in aliquots at −80° C. in 25 mM HEPES, 25 mM MgCl2, 1 mM CaCl2, 10% Glycerine and stored at −80° C.
Perkin Elmer NEX 332 Jod^125 MCP-1, Stock: 2200 Ci/mmol solved in 2000 μl assay buffer, stored at −20° C. THP-1 membrane were adjusted with 25 mM HEPES, pH 7.2; 5 mM MgCl2; 0.5 mM CaCl2; 0.2% BSA assay buffer to a concentration of 2.5 μg/15 μl. Amersham Biosciences PVT-WGA Beads (RPNQ0001) were adjusted with assay buffer to a concentration of 0.24 mg/30 μl. For preparation of the membrane-bead-suspension membranes and beads were incubated for 30 min at RT under rotation (60 rpm) with a ratio of 1:2. Test compounds dissolved in 100% DMSO to a concentration of 10 mM and are further diluted with 100% DMSO to 1 mM. All additional compound dilutions were obtained with assay buffer, final 1% DMSO. Compounds, membrane-bead-suspension and [^125]MCP-1 (ca. 25000 cpm/10 μl) were incubated. Bound radioactivity was determined by scintillation counter after 8 h. Determination of affinity of test compounds (dissociation constant hKi) is calculated by iterative fitting of experimental data using the “easy sys” program, which is based on law of mass action (Schittkowski K. (1994), Numerische Mathematik, Vol. 68, 129-142).
Regarding `Cc1c(Nc2cccc(C(F)(F)F)c2)ncnc1C(=O)N1CCC(N2CCO[C@H]3COCC[C@H]32)CC1` [Example 5], the Ki is 9 nM.

Take `Cc1c(NC[C@H]2CCC[C@@H](c3ccc(C(F)(F)F)cc3)O2)ncnc1C(=O)N1CCC(N2CCO[C@H]3COCC[C@H]32)CC1` [Example 2]: the Ki was determined as 0.5 nM.

On to `Cc1c(NC[C@H]2CCC[C@@H](c3ccc(C(F)(F)F)cc3)O2)ncnc1C(=O)N1CCC(N2C[C@H]3C[C@@H](N(C)S(C)(=O)=O)C[C@H]3C2)CC1` [Example 9], for which the Ki was found to be 0.2 nM.

For `Cc1c(C(=O)N2CCC(N3CC4COCC4C3)CC2)ncnc1N1CCc2ccc(C(F)(F)F)cc2C1` (stereo not drawn) [Example 32], the Ki came out at 80 nM.

As for `Cc1c(Nc2ccc(Cl)c(Cl)c2)ncnc1C(=O)N1CCC(N2CCO[C@H]3COCC[C@H]32)CC1` [Example 24], the Ki was 2 nM.

`Cc1nc(Nc2cccc(C(F)(F)F)c2)c(C)c(C(=O)N2CCC(N3CCO[C@H]4COCC[C@H]43)CC2)n1` (single isomer, unassigned) [Example 40b]: the Ki amounted to 9 nM.

With `Cc1c(Nc2ccc(Cl)c(Cl)c2)nc(C2CC2)nc1C(=O)N1CCC(N2CCO[C@H]3COCC[C@H]32)CC1` (single isomer, unassigned) [Example 35a], the Ki came to 1 nM.

As for `Cc1c(Nc2ccc(Cl)c(Cl)c2)ncnc1C(=O)N1CCC(N2CC3COCC3C2)CC1` (stereo not drawn) [Example 18], the Ki was 24 nM.

In the case of `Cc1nc(Nc2cccc(C(F)(F)F)c2)c(C)c(C(=O)N2CCC(N3CCO[C@H]4COCC[C@H]43)CC2)n1` [Example 30], the Ki was determined as 9 nM.

On to `Cc1c(Nc2cccc(C(F)(F)F)c2)nc(C2CC2)nc1C(=O)N1CCC(N2CCO[C@H]3COCC[C@H]32)CC1` (single isomer, unassigned) [Example 39a], for which the Ki stood at 1 nM.

With `Cc1c(NC[C@H]2CCC[C@@H](c3ccccc3)C2)ncnc1C(=O)N1CCC(N2CC3COCC3C2)CC1` (stereo partly drawn) [Example 44], the Ki came out at 7 nM.

As to `Cc1c(NCc2ccc(C(C)(C)C)cc2)nc(C(F)(F)F)nc1C(=O)N1CCC(N2CC3COCC3C2)CC1` (stereo not drawn) [Example 20], the Ki was determined as 69 nM.
